Measured values: the supplement of paper PMC10307832

Columns and labels:
Assay in all cases: relative viability (nuclei count vs DMSO), 5 days (fraction); higher = more cells survive
[1] = system: 201T
In short: (§1)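 Cells from lung cancer lines were seeded into 1536-well plates and, one day later, dosed by pin tool. Treatments were either a single drug or a fixed dose of an anchor drug with five library-drug doses (not always all listed) in √10 steps. After 5 days, nuclei were stained in a one-step fixation (final 0.05% Triton X-100, 1% formaldehyde, 1 ug/ml Hoechst) and counted on 4× images, and relative viability is the treated-to-vehicle nuclei ratio, as the median of duplicate plates.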

[2] = system: NCI-H441
In short: as §1

[3] = system: PC-14
In short: as §1

[4] = system: LOU-NH91
In short: as §1

[5] = system: H3255
In short: as §1

[6] = system: NCI-H647
In short: as §1

[7] = system: NCI-H3122
In short: as §1

[8] = system: NCI-H322M
In short: as §1

[9] = system: NCI-H1793
In short: as §1

[10] = system: EPLC-272H
In short: as §1

[11] = system: NCI-H2405
In short: as §1

[12] = system: SW 900
In short: as §1

[13] = system: HCC-15
In short: as §1

[14] = system: NCI-H2170
In short: as §1

[15] = system: NCI-H1734
In short: as §1

[16] = system: NCI-H2347
In short: as §1

Compound: CCN(CC)CCCCNc1ncc2cc(-c3cc(OC)cc(OC)c3)c(NC(=O)NC(C)(C)C)nc2n1 + NC(=O)Nc1cc(-c2cccc(F)c2)sc1C(=O)N[C@H]1CCCNC1 [AZD7762] (partner 0.2 µM)
- relative viability ([1]; first compound 0.01 µM): 0.747
- relative viability ([1]; first compound 0.03162 µM): 0.617
- relative viability ([1]; first compound 0.1 µM): 0.68
- relative viability ([1]; first compound 0.3162 µM): 0.685
- relative viability ([1]; first compound 1 µM): 0.758
- relative viability ([2]; first compound 0.01 µM): 1.16
- relative viability ([2]; first compound 0.03162 µM): 1.16
- relative viability ([2]; first compound 0.1 µM): 1.1
- relative viability ([2]; first compound 0.3162 µM): 1.39
- relative viability ([2]; first compound 1 µM): 0.921
- relative viability ([3]; first compound 0.01 µM): 0.352
- relative viability ([3]; first compound 0.03162 µM): 0.347
- relative viability ([3]; first compound 0.1 µM): 0.568
- relative viability ([3]; first compound 0.3162 µM): 0.497
- relative viability ([3]; first compound 1 µM): 0.316
- relative viability ([4]; first compound 0.01 µM): 0.783
- relative viability ([4]; first compound 0.03162 µM): 0.768
- relative viability ([4]; first compound 0.1 µM): 0.828
- relative viability ([4]; first compound 0.3162 µM): 0.845
- relative viability ([4]; first compound 1 µM): 0.794
- relative viability ([5]; first compound 0.01 µM): 0.84
- relative viability ([5]; first compound 0.03162 µM): 0.909
- relative viability ([5]; first compound 0.1 µM): 0.911
- relative viability ([5]; first compound 0.3162 µM): 1.11
- relative viability ([5]; first compound 1 µM): 0.855
- relative viability ([6]; first compound 0.01 µM): 0.272
- relative viability ([6]; first compound 0.03162 µM): 0.612
- relative viability ([6]; first compound 0.1 µM): 0.495
- relative viability ([6]; first compound 0.3162 µM): 0.476
- relative viability ([6]; first compound 1 µM): 0.247
- relative viability ([7]; first compound 0.01 µM): 1
- relative viability ([7]; first compound 0.03162 µM): 0.987
- relative viability ([7]; first compound 0.1 µM): 1.08
- relative viability ([7]; first compound 0.3162 µM): 0.971
- relative viability ([7]; first compound 1 µM): 1.06
- relative viability ([8]; first compound 0.01 µM): 0.578
- relative viability ([8]; first compound 0.03162 µM): 0.52
- relative viability ([8]; first compound 0.1 µM): 0.59
- relative viability ([8]; first compound 0.3162 µM): 0.728
- relative viability ([8]; first compound 1 µM): 0.559
- relative viability ([9]; first compound 0.01 µM): 0.541
- relative viability ([9]; first compound 0.03162 µM): 0.581
- relative viability ([9]; first compound 0.1 µM): 0.601
- relative viability ([9]; first compound 0.3162 µM): 0.326
- relative viability ([9]; first compound 1 µM): 0.319
- relative viability ([10]; first compound 0.01 µM): 0.199
- relative viability ([10]; first compound 0.1 µM): 0.36
- relative viability ([10]; first compound 0.3162 µM): 0.188
- relative viability ([10]; first compound 1 µM): 0.198
- relative viability ([11]; first compound 0.01 µM): 0.792
- relative viability ([11]; first compound 0.03162 µM): 0.734
- relative viability ([11]; first compound 0.1 µM): 0.812
- relative viability ([11]; first compound 0.3162 µM): 0.803
- relative viability ([11]; first compound 1 µM): 0.628
- relative viability ([12]; first compound 0.01 µM): 0.646
- relative viability ([12]; first compound 0.03162 µM): 0.637
- relative viability ([12]; first compound 0.1 µM): 0.626
- relative viability ([12]; first compound 0.3162 µM): 0.538
- relative viability ([12]; first compound 1 µM): 0.388
- relative viability ([13]; first compound 0.01 µM): 1.22
- relative viability ([13]; first compound 0.03162 µM): 1.17
- relative viability ([13]; first compound 0.1 µM): 1.22
- relative viability ([13]; first compound 0.3162 µM): 1.37
- relative viability ([13]; first compound 1 µM): 1.12
- relative viability ([14]; first compound 0.01 µM): 0.865
- relative viability ([14]; first compound 0.03162 µM): 1.01
- relative viability ([14]; first compound 0.1 µM): 1
- relative viability ([14]; first compound 0.3162 µM): 0.953
- relative viability ([14]; first compound 1 µM): 0.869
- relative viability ([15]; first compound 0.01 µM): 0.534
- relative viability ([15]; first compound 0.03162 µM): 0.593
- relative viability ([15]; first compound 0.1 µM): 0.52
- relative viability ([15]; first compound 0.3162 µM): 0.604
- relative viability ([15]; first compound 1 µM): 0.486
- relative viability ([16]; first compound 0.01 µM): 0.737
- relative viability ([16]; first compound 0.03162 µM): 0.622
- relative viability ([16]; first compound 0.1 µM): 0.842
- relative viability ([16]; first compound 0.3162 µM): 0.748
- relative viability ([16]; first compound 1 µM): 0.684
